# Reference: patent EP2345639A1, “Cyclic hydroxylamine derivatives, their preparation and use as antioxidants” (ABIOGEN PHARMA S.p.A., priority 2009, dated 2011)
# Assays:
# [1] = Acid dissociation constants (pKa) by titration; type: physicochemical; details: pH at semi-neutralization point of titration with 0.1 N NaOH or HCl
# Method: The following equipment was used during the implementation of all the examples: • for melting point determination a Buchi B-540 instrument was used; • the pKa is the pH at the semi-neutralization point of titration using a Mettler Toledo DL-50 instrument with a 0.1 N NaOH or HC! solution; • the ^1H-NMR spectra were recorded at 300 MHz and the ^13C-NMR spectra were recorded at 75 MHz using a Varian Unity 300 instrument; • spectrophotometric measurements were carried out using a Lambda Perkin Elmer 15 UV/Vis spectrophotometer for the DPPH assay and a Wallac Victor 1420 multilabel counter spectrophotometer.
# [2] = TEAC method (Trolox Equivalent Antioxidant Capacity Assay); type: biochemical; details: ratio of gradient to gradient of Trolox; 650 nm, 37 °C, about 90 minutes
# Description: This assay is used to measure the total antioxidant activity of pure substances, biological fluids and plant compounds and is based on the reaction of antioxidants with the cation radical ABTS·^+ (2,2'-azinobis(3-ethylbenzothiazolin-6-sulphonate)). This cation radical is metastable and has to be generated just before the experiment by reacting ABTS with hydrogen peroxide in the presence of HRP. This radical can be reduced, with consequent loss of absorbance, by an antioxidant whose scavenging capacity can be measured spectrophotometrically at 650 nm. The test is carried out at 37 °C and the results are obtained from a comparison with Trolox (a synthetic antioxidant and hydrophilic analogue of vitamin E).
# The ABTS solution S1 was prepared as follows: • 20 mg of ABTS were added to 50 mM of citric acid buffer (40 ml) at pH=4.5 and to the resulting solution there was added an aqueous solution of HRP (4.4 mg, 400 µl) and an aqueous solution of H2O2 (10 µl of a 30% solution diluted with 16.3 ml of water).
# For each of the compounds (1)-(11), as synthesized above, there was prepared a 600 µM solution in water, methanol or DMSO according to its solubility, as well as a Trolox solution as reference.
# Each solution was diluted to produce 6 solutions each at a concentration between 25 µM and 300 µM. From each of the diluted and divided solutions, there were withdrawn 20 µl to which 200 µl of solution S1 were then added.
# The decrease in absorbance of each solution thus obtained was monitored at 650 nm until a stable value was reached (about 90 minutes).
# For each set of 6 solutions and for the reference trolox solution, the absorption was given in graph form as a function of the amount of compound (nmol) in the solution. The gradient of the straight line obtained by linear interpolation was determined according to the least squares method. The TEAC value of each compound of the invention is given in the table below and is expressed as the ratio between the gradient of the resulting straight line and the gradient of the reference (trolox) straight line.
# healthy animals = assay: Effect of the compounds on healthy animals (same in vivo assay, cerebral oxidative parameters); set-up: species or system mice
# Method: 10 mice were used for each treatment group. For each compound 50 mg/kg were administered intraperitoneally (IP) for three consecutive days (day 0, 1 and 2); half the animals (5) also received IP 16.7 mg/kg of doxorubicin immediately after the first treatment (day 0). On the day after the last administration (day 3) the animals were killed by neck dislocation and the brains were removed, weighed and frozen in liquid nitrogen.
# For the analyses of oxidative stress, 100 mg/ml of brain homogenate was prepared in HEB^(*) buffer (pH 7.4 EDTA/HEPES^(**)) containing a mixture of enzyme inhibitors (Leupeptin, Pepstatin, Aprotinin, BHA).
# The evaluation parameters were: • BrW/BWi: ratio between final brain weight and initial body weight (day 0); • Prot. Hmg: total proteins in the homogenate (BCA method, i.e. bicinchoninic acid); • Prot. Ox: oxidized proteins in the Hmg by means of a colorimetric method using dinitrophenylhydrazone (DNPH); • GSH: reduced glutathione in the supernatant (sn) of the Hmg, obtained after precipitation with metaphosphoric acid (MPA), by means of a colorimetric method using dithiodinitrobenzene (DTNB); • CAT: catalase in the Hmg by a colorimetric method using potassium dichromate; • SOD: superoxide dismutase by a colorimetric method using SOD Reagent (xanthine, EDTA, nitroblue tetrazole, Na2CO3, BSA, i.e. bovine serum albumin); • GST: glutathione S-transferase in the supernatant by a colorimetric method using chlorodinitrobenzene (CDNB) and GSH; and • GPx: glutathione peroxidase in the supernatant after addition of GSH and t-BuOOH, heating and precipitation with MPA; followed by GSH method with DTNB. The assay was performed on the compounds (1)-(5) and (7)-(11) and on edaravone (E), as comparative compound.
# The mean % effect, on all the parameters simultaneously, of the triple treatment in healthy animal, as mean percentage change relative to the vehicle. This value is useful as an approximate safety index of the oxidative state of the brain, i.e. the capacity of the compounds of the invention not to alter cerebral homeostasis in healthy animals.
# [3] = healthy mice, 50 mg/kg IP for three consecutive days, mean over all parameters, D = doxorubicin alone, 50 mg/kg
# [4] = healthy mice, 50 mg/kg IP x3 days, percentage change relative to the vehicle
SMILES,pKa1 [1],pKa2 [1],TEAC [2],Average % variation with respect to the vehicle (healthy animals; [3]),Prot. Hmg (healthy animals; [4]),"Brain/BWi (healthy animals; mouse, in vivo, ip, 50 mg/kg)","CAT/pr (healthy animals; mouse, in vivo, ip, 50 mg/kg)","GPX/pr (healthy animals; mouse, in vivo, ip, 50 mg/kg)","GSH/pr (healthy animals; mouse, in vivo, ip, 50 mg/kg)","GST/pr (healthy animals; mouse, in vivo, ip, 50 mg/kg)","Prot. Ox/pr (healthy animals; mouse, in vivo, ip, 50 mg/kg)","SOD/pr (healthy animals; mouse, in vivo, ip, 50 mg/kg)",Brain/BWi (healthy animals; [4]),CAT/pr (healthy animals; [4]),GPX/pr (healthy animals; [4]),GSH/pr (healthy animals; [4]),GST/pr (healthy animals; [4]),Prot. Ox/pr (healthy animals; [4]),SOD/pr (healthy animals; [4]),further results
"CC1(C)CC(=O)C(C2COCCN2O)C(=O)C1 (centres unmarked) [(4), 2-(4-hydroxymorpholin-3-yl)-5,5-dimethylcyclohexane-1,3-dione]",2.28,6.15,1.2,did not significantly alter the parameters,1.9%,-0.1%,-0.7%,-2.0%,-4.0%,-5.2%,-3.0%,-5.8%,,,,,,,,"Average % variation with respect to the vehicle (healthy animals; healthy mice, 50 mg/kg IP for three consecutive days, mean over all parameters, D = doxorubicin alone, listed as V+(4), 50 mg/kg): -2.1%"
"O=c1oc2ccccc2c(O)c1C1COCCN1O (centres unmarked) [(10), 4-hydroxy-3-(4-hydroxymorpholin-3-yl)-2H-chromen-2-one]",2.70,6.14,1.4,did not significantly alter the parameters,3.1%,-5.9%,-8.2%,-0.8%,-3.2%,-1.2%,5.4%,2.1%,,,,,,,,"Average % variation with respect to the vehicle (healthy animals; healthy mice, 50 mg/kg IP for three consecutive days, mean over all parameters, D = doxorubicin alone, listed as V+(10), 50 mg/kg): -4.4%"
"CC1(C)CC(=O)C(C2CCCCN2O)C(=O)C1 (centres unmarked) [(3), 2-(1-hydroxypiperidin-2-yl)-5,5-dimethylcyclohexane-1,3-dione]",3.47,6.92,1.0,did not significantly alter the parameters,2.5%,,,,,,,,1.4%,-10.5%,-1.8%,2.0%,4.1%,-8.6%,-2.8%,"Average % variation with respect to the vehicle (healthy animals; healthy mice, 50 mg/kg IP for three consecutive days, mean over all parameters, D = doxorubicin alone, listed as V+(3), 50 mg/kg): -0.2%"
"CC1=NN(c2ccccc2)C(=O)C1 [edaravone, reference compound]",,,0.9,,3.7%,,,,,,,,2.7%,-5.0%,-6.7%,-5.5%,-3.1%,-2.3%,-2.2%,"Average % variation with respect to the vehicle (healthy animals; healthy mice, 50 mg/kg IP for three consecutive days, mean over all parameters, D = doxorubicin alone): -2.7%"
"O=C1CCC(=O)C1C1COCCN1O (centres unmarked) [(7), 2-(4-hydroxymorpholin-3-yl)-cyclopentane-1,3-dione]",2.32,4.98,1.5,did not significantly alter the parameters,3.6%,,,,,,,,-9.8%,-11.6%,-0.8%,-9.5%,-0.5%,-7.2%,0.5%,"Average % variation with respect to the vehicle (healthy animals; healthy mice, 50 mg/kg IP for three consecutive days, mean over all parameters, D = doxorubicin alone, listed as V+(7), 50 mg/kg): -3.5%"
"O=C1CC(c2ccccc2)CC(=O)C1C1COCCN1O (centres unmarked) [(5), 2-(4-hydroxymorpholin-3-yl)-5-phenylcyclohexane-1,3-dione]",2.71,6.44,1.2,did not significantly alter the parameters,5.0%,0.1%,-8.1%,-4.1%,-6.7%,-5.8%,1.8%,-3.7%,,,,,,,,"Average % variation with respect to the vehicle (healthy animals; healthy mice, 50 mg/kg IP for three consecutive days, mean over all parameters, D = doxorubicin alone, listed as V+(5), 50 mg/kg): -3.2%"
"O=C1c2ccccc2C(=O)C1C1COCCN1O (centres unmarked) [(8), 2-(4-hydroxymorpholin-3-yl)-2H-indene-1,3-dione]",2.17,5.98,1.5,,,,,,,,,,,,,,,,,"Average % variation with respect to the vehicle (healthy animals; mouse, in vivo, ip, 50 mg/kg): -8.0%"
"CC1=NN(c2ccccc2)C(=O)C1C1COCCN1O (centres unmarked) [(11), 4-(4-hydroxymorpholin-3-yl)-3-methyl-1-phenyl-1H-pyrazol-5(4H)-one]",3.31,6.92,2.0,did not significantly alter the parameters,1.7%,,,,,,,,-2.7%,-1.6%,-3.3%,-1.2%,-0.9%,1.5%,-33. %,"Average % variation with respect to the vehicle (healthy animals; healthy mice, 50 mg/kg IP for three consecutive days, mean over all parameters, D = doxorubicin alone, listed as V+(11), 50 mg/kg): -2.0%"
